# Values quoted from earlier work, collected in US11883460B2, “Antibiotic compositions for treating bacterial infections” (AGENCY FOR SCIENCE, TECHNOLOGY AND RESEARCH, priority 2014, dated 2024).
# Settings: compared with colistimethate sodium
substance,measurement,value
Colistin sulfate,Stability in human plasma,more stable than colistimethate sodium
